Results from ChEMBL document CHEMBL1129778, “Design and synthesis of bisubstrate analogues for 3-hydroxy-3-methyl-glutaryl coenzyme a reductase” (Bioorg Med Chem Lett, 1996).
The source made the active and inactive calls. The calls are words filed in the database; no cut-off is given here.

Molecular target: T1, 3-hydroxy-3-methylglutaryl-coenzyme A reductase (Rattus norvegicus) (UniProt P51639)
T1 sequence (whole entry): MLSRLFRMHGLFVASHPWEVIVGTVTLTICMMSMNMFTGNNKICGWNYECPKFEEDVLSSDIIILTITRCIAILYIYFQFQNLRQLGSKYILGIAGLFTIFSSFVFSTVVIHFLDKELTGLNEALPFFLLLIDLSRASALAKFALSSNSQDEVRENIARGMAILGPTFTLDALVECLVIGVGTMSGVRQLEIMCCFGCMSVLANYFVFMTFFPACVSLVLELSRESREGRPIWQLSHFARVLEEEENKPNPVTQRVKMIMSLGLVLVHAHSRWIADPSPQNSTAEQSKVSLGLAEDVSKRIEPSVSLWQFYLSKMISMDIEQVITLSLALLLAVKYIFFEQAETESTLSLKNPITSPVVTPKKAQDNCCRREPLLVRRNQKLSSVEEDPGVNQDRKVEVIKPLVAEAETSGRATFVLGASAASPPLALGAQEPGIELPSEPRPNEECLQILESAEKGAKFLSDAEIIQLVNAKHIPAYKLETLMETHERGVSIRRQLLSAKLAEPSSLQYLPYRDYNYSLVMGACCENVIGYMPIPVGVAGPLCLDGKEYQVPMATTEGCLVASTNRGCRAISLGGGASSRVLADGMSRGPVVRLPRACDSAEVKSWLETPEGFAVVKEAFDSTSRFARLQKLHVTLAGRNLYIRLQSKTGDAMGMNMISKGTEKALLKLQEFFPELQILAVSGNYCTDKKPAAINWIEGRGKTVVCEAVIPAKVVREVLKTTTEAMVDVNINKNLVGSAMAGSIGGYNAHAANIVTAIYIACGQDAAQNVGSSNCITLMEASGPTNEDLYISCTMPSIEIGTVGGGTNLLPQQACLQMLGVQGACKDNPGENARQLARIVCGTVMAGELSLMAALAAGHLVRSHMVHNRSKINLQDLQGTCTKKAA
Test: Biological activity against rat liver 3-hydroxy-3-methyl glutaryl coenzyme A reductase (HMGR) at a concentration of 10E-4 M; No inhibition
Format: tissue-based

Activity | SMILES
inactive | COC(=O)C[C@H](O)C[C@H](O)Cc1ccncc1C(N)=O
inactive | COC(=O)C[C@H](O)C[C@@H](O)Cc1ccncc1C(N)=O
